From patent US12629374B2, “Antimalarial agents” (Merck Sharp & Dohme LLC, priority 2020, dated 2026)

Tested on: ring stage parasites
Experiment: Parasite growth potency assay, 72 hours, LDH readout
Assay type: cell-based
Details: 72 h, parasite growth measured by LDH assay after 72 hours at 37° C.; 0.7% rings, 2% haematocrit; read-out: EC50
Description: The parasite stock was maintained at 4% haematocrit in RPMI-Hepes media buffered with sodium bicarbonate and supplemented with 5% heat inactivated human serum and 0.5% albumax.
On the day of assay set up, a blood smear of the parasite culture was Giemsa stained and counted. The parasitemia was adjusted to 0.7% rings and the haematocrit was diluted to 2% in RPMI-Hepes media buffered with sodium bicarbonate and supplemented with 5% heat inactivated human serum and 0.5% albumax. 30 ul of diluted parasites are then added into 10 ul of media+compound in pre-prepared Greiner TC assay plates. Parasite assay plates were placed in gassed humidified boxes in single layer and allowed to incubate at 37° C. for 72 hours. After 72 hours growth, assay plates are sealed with parafilm and frozen flat, in single file at −80° C. overnight. On the following day, assay plates are allowed to thaw at room temperature for 4 hours to which an LDH assay is performed to measure parasite growth.

Question: How did the EC50 turn out when CCC1(CC)CC(=O)N([C@H](c2cccc(C(=O)N[C@H]3CC(C)(C)Oc4ccccc43)c2)c2cncs2)C(=N)N1 (stereo in doubt) [Example 90C, 3-[(4,4-diethyl-2-imino-6-oxo-hexahydropyrimidin-1-yl)-thiazol-5-yl-methyl]-N-(2,2-dimethylchroman-4-yl)benzamide] was run?
Answer: The EC50 was 12 nM.

Question: For CCC1(CC)CC(=O)N(Cc2cccc(C(=O)N[C@@H]3C[C@@H](C(F)(F)F)Oc4ccccc43)c2)C(=N)N1 (stereo in doubt) [Example 91B, [4,4-diethyl-6-oxo-1-[[3-[[2-(trifluoromethyl)chroman-4-yl]carbamoyl]phenyl]methyl]hexa-hydropyrimidin-2-ylidene]ammonium; 2,2,2-trifluoroacetate], which EC50 is on record?
Answer: The EC50 was 63.7 nM.

Question: With CCC1(CC)CC(=O)N([C@H](c2cncnc2)c2cccc(C(=O)N[C@H]3CC(C)(C)Oc4ccccc43)c2)C(=N)N1 (stereo in doubt) [Example 92B, 3-[(4,4-diethyl-2-imino-6-oxo-hexahydropyrimidin-1-yl)-pyrimidin-5-yl-methyl]-N-(2,2-dimethylchroman-4-yl)benzamide] as the compound, how does the EC50 read?
Answer: The EC50 was 0.9 nM.

Question: Which EC50 does the source give for CCC1(CC)CC(=O)N(Cc2cccc(C(=O)N[C@H]3CC(C)(C)Oc4cc(F)ccc43)c2)C(=N)N1 (stereo in doubt) [Example 93, [4,4-diethyl-1-[[3-[(7-fluoro-2,2-dimethyl-chroman-4-yl)carbamoyl]phenyl]methyl]-6-oxo-hexahydropyrimidin-2-ylidene]ammonium; 2,2,2-trifluoroacetate] here?
Answer: Its EC50 is 1.8 nM.

Question: With CCC1(CC)CC(=O)N(Cc2cccc(C(=O)N[C@H]3CC(C)(C)Oc4cccc(F)c43)c2)C(=N)N1 (stereo in doubt) [Example 94A, [4,4-diethyl-1-[[3-[(5-fluoro-2,2-dimethyl-chroman-4-yl)carbamoyl]phenyl]methyl]-6-oxo-hexahydropyrimidin-2-ylidene]ammonium; 2,2,2-trifluoroacetate] as the compound, how does the EC50 read?
Answer: Its EC50 is 0.4 nM.

Question: How did the EC50 turn out when CCC1(CC)CC(=O)N(Cc2cccc(C(=O)N[C@@H]3CC(C)(C)Oc4cccc(F)c43)c2)C(=N)N1 (stereo in doubt) [Example 94B, [4,4-diethyl-1-[[3-[(5-fluoro-2,2-dimethyl-chroman-4-yl)carbamoyl]phenyl]methyl]-6-oxo-hexahydropyrimidin-2-ylidene]ammonium; 2,2,2-trifluoroacetate] was run?
Answer: The EC50 was 72.5 nM.

Question: Which EC50 does the source give for CCC1(CC)CC(=O)N(Cc2cccc(C(=O)N[C@H]3CC(C)(C)Oc4c3ccc(F)c4F)c2)C(=N)N1 (stereo in doubt) [Example 117, [1-[[3-[(7,8-difluoro-2,2-dimethyl-chroman-4-yl)carbamoyl]phenyl]methyl]-4,4-diethyl-6-oxo-hexahydropyrimidin-2-ylidene]ammonium; 2,2,2-trifluoroacetate] here?
Answer: Its EC50 is 1.5 nM.

Question: How did the EC50 turn out when CCC1(CC)CC(=O)N(Cc2cccc(C(=O)N[C@@H]3c4ccccc4CC3(C)O)c2)C(=N)N1 (stereo in doubt) [Example 121, 3-[(4,4-diethyl-2-imino-6-oxo-hexahydropyrimidin-1-yl)methyl]-N-(2-hydroxy-2-methyl-indan-1-yl)benzamide] was run?
Answer: The EC50 was 8.6 nM.

Question: CCC1(CC)CC(=O)N(Cc2cccc(C(=O)N[C@@H]3c4ccccc4OCC3O)c2)C(=N)N1 (stereo in doubt) [Example 126B, 3-[(4,4-diethyl-2-imino-6-oxo-hexahydropyrimidin-1-yl)methyl]-N-(3-hydroxychroman-4-yl)benzamide] was tested. Which EC50 did it give?
Answer: Its EC50 is 19.4 nM.

Question: For CCC1(CC)CC(=O)N([C@H](CCOC)c2cccc(C(=O)N[C@@H]3c4ccccc4OC(C)(C)[C@H]3O)c2)C(=N)N1 (stereo in doubt) [Example 128, [4,4-diethyl-1-[1-[3-[(3-hydroxy-2,2-dimethyl-chroman-4-yl)carbamoyl]phenyl]-3-methoxy-propyl]-6-oxo-hexahydropyrimidin-2-ylidene]ammonium; 2,2,2-trifluoroacetate], which EC50 is on record?
Answer: The EC50 was 1.1 nM.

Question: CCC1(CC)CC(=O)N([C@H](CCOC)c2cc(F)cc(C(=O)N[C@@H]3c4ccccc4OC(C)(C)[C@H]3O)c2)C(=N)N1 (stereo in doubt) [Example 129A, [4,4-diethyl-1-[1-[3-fluoro-5-[(3-hydroxy-2,2-dimethyl-chroman-4-yl)carbamoyl]phenyl]-3-methoxy-propyl]-6-oxo-hexahydropyrimidin-2-ylidene]ammonium; 2,2,2-trifluoroacetate] was tested. Which EC50 did it give?
Answer: Its EC50 is 0.8 nM.

Question: For CCC1(CC)CC(=O)N([C@H](CCOC)c2cc(F)cc(C(=O)N[C@H]3c4ccccc4OC(C)(C)[C@@H]3O)c2)C(=N)N1 (stereo in doubt) [Example 129B, [4,4-diethyl-1-[1-[3-fluoro-5-[(3-hydroxy-2,2-dimethyl-chroman-4-yl)carbamoyl]phenyl]-3-methoxy-propyl]-6-oxo-hexahydropyrimidin-2-ylidene]ammonium; 2,2,2-trifluoroacetate], which EC50 is on record?
Answer: The EC50 was 87 nM.

Question: CCC1(CC)CC(=O)N(Cc2cccc(C(=O)N[C@@H]3c4ccccc4OCC3(C)O)c2)C(=N)N1 (stereo in doubt) [Example 131A, 3-[(4,4-diethyl-2-imino-6-oxo-hexahydropyrimidin-1-yl)methyl]-N-(3-hydroxy-3-methyl-chroman-4-yl)benzamide] was tested. Which EC50 did it give?
Answer: Its EC50 is 6.6 nM.

Question: For CCC1(CC)CC(=O)N(Cc2cccc(C(=O)N[C@H]3c4ccccc4OCC3(C)O)c2)C(=N)N1 (stereo in doubt) [Example 131B, 3-[(4,4-diethyl-2-imino-6-oxo-hexahydropyrimidin-1-yl)methyl]-N-(3-hydroxy-3-methyl-chroman-4-yl)benzamide], which EC50 is on record?
Answer: Its EC50 is 20.2 nM.

Question: With CCC1(CC)CC(=O)N(Cc2cc(C(=O)N[C@@H]3c4ccccc4OC(C)(C)[C@H]3O)ccn2)C(=N)N1 (stereo in doubt) [Example 133, [4,4-diethyl-1-[[4-[(3-hydroxy-2,2-dimethyl-chroman-4-yl)carbamoyl]pyridin-1-ium-2-yl]methyl]-6-oxo-hexahydropyrimidin-2-ylidene]ammonium; 2,2,2-trifluoroacetate] as the compound, how does the EC50 read?
Answer: Its EC50 is 3.3 nM.

Question: CCC1(CC)CC(=O)N([C@H](CCN2CCOCC2)c2cccc(C(=O)NC3CC(C)(C)Oc4ccc(F)cc43)c2)C(=N)N1 (stereo in doubt) [Example 137, [4,4-diethyl-1-[1-[3-[(6-fluoro-2,2-dimethyl-chroman-4-yl)carbamoyl]phenyl]-3-morpholin-4-ium-4-yl-propyl]-6-oxo-hexahydropyrimidin-2-ylidene]ammonium; 2,2,2-trifluoroacetate] was tested. Which EC50 did it give?
Answer: Its EC50 is 0.8 nM.

Question: With CCC1(CC)CC(=O)N([C@H](CCOC)c2cccc(C(=O)NC3c4ccccc4CC3(C)O)c2)C(=N)N1 (stereo in doubt) [Example 142A, 3-[1-(4,4-diethyl-2-imino-6-oxo-hexahydropyrimidin-1-yl)-3-methoxy-propyl]-N-(2-hydroxy-2-methyl-indan-1-yl)benzamide] as the compound, how does the EC50 read?
Answer: Its EC50 is 2.1 nM.

Question: With CCC1(CC)CC(=O)N([C@H](CCOC)c2cccc(C(=O)N[C@@H]3c4ccccc4OCC3(C)O)c2)C(=N)N1 (stereo in doubt) [Example 143A, 3-[1-(4,4-diethyl-2-imino-6-oxo-hexahydropyrimidin-1-yl)-3-methoxy-propyl]-N-(3-hydroxy-3-methyl-chroman-4-yl)benzamide] as the compound, how does the EC50 read?
Answer: The EC50 was 2.2 nM.

Same assay, conditions: parasite growth measured by LDH assay after 72 hours at 37° C.; 0.7% rings, 2% haematocrit; read-out: EC50

Question: Which EC50 does the source give for CCC1(CC)CC(=O)N([C@@H](c2cccc(C(=O)N[C@@H]3CC(C)(C)Oc4ccccc43)c2)c2cncs2)C(=N)N1 (stereo in doubt) [Example 90A, 3-[(4,4-diethyl-2-imino-6-oxo-hexahydropyrimidin-1-yl)-thiazol-5-yl-methyl]-N-(2,2-dimethylchroman-4-yl)benzamide] here?
Answer: The EC50 was 3.2 nM.

Question: For CCC1(CC)CC(=O)N([C@@H](c2cccc(C(=O)N[C@@H]3CC(C)(C)Oc4ccccc43)c2)c2cncs2)C(=N)N1 (stereo in doubt) [Example 90B, 3-[(4,4-diethyl-2-imino-6-oxo-hexahydropyrimidin-1-yl)-thiazol-5-yl-methyl]-N-(2,2-dimethylchroman-4-yl)benzamide], which EC50 is on record?
Answer: Its EC50 is 0.5 nM.

Question: For CCC1(CC)CC(=O)N([C@H](CCOC)c2cccc(C(=O)N[C@@H]3c4ccccc4OCC3(C)O)c2)C(=N)N1 (stereo in doubt) [Example 143B, 3-[1-(4,4-diethyl-2-imino-6-oxo-hexahydropyrimidin-1-yl)-3-methoxy-propyl]-N-(3-hydroxy-3-methyl-chroman-4-yl)benzamide], which EC50 is on record?
Answer: The EC50 was 1.8 nM.

Question: For CCC1(CC)CC(=O)N([C@H](CCOC)c2cc(F)cc(C(=O)N[C@@H]3c4ccccc4CC3(C)O)c2)C(=N)N1 (stereo in doubt) [Example 144B, 3-[1-(4,4-diethyl-2-imino-6-oxo-hexahydropyrimidin-1-yl)-3-methoxy-propyl]-5-fluoro-N-(2-hydroxy-2-methyl-indan-1-yl)benzamide], which EC50 is on record?
Answer: The EC50 was 1.9 nM.

Same assay, conditions: parasite growth measured by LDH assay after 72 hours at 37° C.; 0.7% rings, 2% haematocrit; trifluoroacetate; read-out: EC50

Question: How did the EC50 turn out when CCC1(CC)CC(=O)N(Cc2cccc(C(=O)N[C@H]3C[C@H](C(F)(F)F)Oc4ccccc43)c2)C(=N)N1 (stereo in doubt) [Example 91A, [4,4-diethyl-6-oxo-1-[[3-[[2-(trifluoromethyl)chroman-4-yl]carbamoyl]phenyl]methyl]hexa-hydropyrimidin-2-ylidene]ammonium; 2,2,2-trifluoroacetate] was run?
Answer: The EC50 was 1.9 nM.

Question: For CCC1(CC)CC(=O)N(Cc2cccc(C(=O)N[C@H]3C[C@H](C(F)(F)F)Oc4ccccc43)c2)C(=N)N1 (stereo in doubt) [Example 97, [4,4-diethyl-6-oxo-1-[[3-[[2-(trifluoromethyl)chroman-4-yl]carbamoyl]phenyl]methyl]hexa-hydropyrimidin-2-ylidene]ammonium; 2,2,2-trifluoroacetate], which EC50 is on record?
Answer: Its EC50 is 10.6 nM.
